From patent US10307413B2, “Tetrahydro- and dihydro-isoquinoline PRMT5 inhibitors and uses thereof” (Epizyme, Inc., priority 2013, dated 2019)
Like-named read-outs stand apart in the source and are kept apart here.

Columns and labels:
Z-138 cell line = test: Z-138 Proliferation Assay (Cell Titer Glo, 5 days); assay type: cell-based; settings: Homo sapiens, read-out: Proliferation EC50
Summary of the method: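 Z-138 cells exposed 5 days at 37 °C, 5% CO2 to nine-point 3-fold dilutions (final top 20 μM, 0.2% DMSO), in triplicate. Viability read as ATP by CellTiter-Glo luminescence; IC50 from 4-parameter fit of normalized dose-response curves.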

[1] = test system: symmetric di-methyl arginine in Z-138 cells; test: Z-138 Methylation Assay (In Cell Western for symmetric di-methyl arginine and DNA content); assay type: cell-based; settings: Homo sapiens, read-out: ICW EC50
Summary of the method: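 Z-138 cells (50,000 cells/mL) treated with compound 96 h at 37 °C, then fixed and stained for symmetric di-methyl arginine (800 nm) with DRAQ5 DNA counterstain (700 nm) on Licor Odyssey.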

PRMT5/MEP50 = PRMT5/MEP50 (Homo sapiens (Human), UniProt O14744); test: PRMT5 Biochemical Assay (PRMT5/MEP50 enzyme assay on peptide substrate, 3H-SAM Flashplate)
Summary of the method: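 Radiometric methylation of a biotin-tagged H4(1-15) peptide by human PRMT5/MEP50 from baculovirus/Sf9, with ³H-SAM incorporation read on streptavidin Flashplates. Buffer: Bicine pH 7.6, TCEP, BSG, Tween20; compound preincubated 30 min at 25 °C; stopped with 600 µM final unlabeled SAM. DMSO and SAH controls; IC50 from fitted % inhibition.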

[2] = 120 h, Z-138 cells, 5 days, Cell Titer Glo

Chain of PRMT5/MEP50 (O14744 other isoform, or with tags, fused parts or gaps): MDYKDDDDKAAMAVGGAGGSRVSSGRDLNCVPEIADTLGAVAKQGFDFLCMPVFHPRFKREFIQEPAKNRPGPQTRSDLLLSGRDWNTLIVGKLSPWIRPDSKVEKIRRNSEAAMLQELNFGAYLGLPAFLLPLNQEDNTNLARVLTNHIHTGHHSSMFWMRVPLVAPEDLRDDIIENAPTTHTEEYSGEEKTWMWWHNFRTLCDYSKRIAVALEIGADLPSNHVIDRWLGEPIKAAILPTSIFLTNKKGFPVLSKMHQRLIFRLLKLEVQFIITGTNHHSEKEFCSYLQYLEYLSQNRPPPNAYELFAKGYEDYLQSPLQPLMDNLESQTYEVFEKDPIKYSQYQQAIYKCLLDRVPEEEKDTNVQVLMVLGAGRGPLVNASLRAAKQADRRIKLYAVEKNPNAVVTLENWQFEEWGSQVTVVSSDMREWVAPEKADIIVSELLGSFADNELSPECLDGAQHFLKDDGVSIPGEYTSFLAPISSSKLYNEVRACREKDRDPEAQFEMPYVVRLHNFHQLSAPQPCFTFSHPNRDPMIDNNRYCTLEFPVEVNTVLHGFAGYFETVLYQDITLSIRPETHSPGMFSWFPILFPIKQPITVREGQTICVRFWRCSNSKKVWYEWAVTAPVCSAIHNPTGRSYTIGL
Chain of PRMT5/MEP50 (Q9BQA1 other isoform, or with tags, fused parts or gaps partner): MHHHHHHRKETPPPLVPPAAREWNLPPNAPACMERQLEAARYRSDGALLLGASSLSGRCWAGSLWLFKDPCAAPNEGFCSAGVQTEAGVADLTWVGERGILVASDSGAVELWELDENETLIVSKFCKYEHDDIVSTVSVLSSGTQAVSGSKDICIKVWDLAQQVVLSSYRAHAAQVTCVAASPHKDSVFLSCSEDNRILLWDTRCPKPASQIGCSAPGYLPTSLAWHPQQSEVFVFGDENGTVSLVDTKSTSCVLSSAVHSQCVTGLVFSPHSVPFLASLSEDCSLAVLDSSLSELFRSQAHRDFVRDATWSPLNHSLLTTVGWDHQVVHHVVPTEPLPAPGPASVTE

SMILES | EC50 ([1]; In Cell Western methylation) | IC50 (PRMT5/MEP50; PRMT5 biochemical assay) | EC50 [1] | IC50 (PRMT5/MEP50) | EC50 (Z-138 cell line; [2]) | EC50 (Z-138 cell line; 120 h, Z-138 cells, 5 days) | EC50 (Z-138 cell line; Z-138, 120 h)
O=C(NC[C@H](O)CN1CCc2ccccc2C1)c1ccc(OCCCN2CCCCC2)cc1 [Compound 362] |  |  | < 100 nM | 101 to 1000 nM |  | 101 to 1000 nM | 
CC1(C)CC(Nc2cc(C(=O)NC[C@H](O)CN3CCc4ccccc4C3)ncn2)CC(C)(C)N1 [Compound 430] | 101 to 1000 nM | < 100 nM |  |  | 1000 to 10000 nM |  | 
O=C(NC[C@H](O)CN1CCc2ccccc2C1)c1ccc(OCCN2CCOCC2)cc1 [Compound 387] |  |  | < 100 nM | < 100 nM |  | 101 to 1000 nM | 
Cc1ccc2c(c1)CCN(C[C@@H](O)CNC(=O)c1cc(NC3COC3)ncn1)C2 [Compound 681] | 101 to 1000 nM | 101 to 1000 nM |  |  | > 5000 nM |  | 
O=C(NC[C@H](O)CN1CCc2ccccc2C1)c1cc(NC2CCC2)nc(N2CCOCC2)c1 [Compound 349] |  |  | < 100 nM | < 100 nM |  | < 100 nM | 
O=C(NCC(O)CN1CCc2ccccc2C1)c1ccccc1-c1ccccn1 (stereo not drawn) [Compound 12, N-(3-(3,4-dihydroisoquinolin-2(1H)-yl)-2-hydroxypropyl)-2-(pyridin-2-yl)benzamide] |  |  | 1000 to 10000 nM | 101 to 1000 nM |  | > 20000 nM | 
Cc1cccc2c1CCN(C[C@@H](O)CNC(=O)c1cc(NC3COC3)ncn1)C2 [Compound 683] | 101 to 1000 nM | 101 to 1000 nM |  |  | > 5000 nM |  | 
CC(=O)Nc1ccc(C(=O)NCC(O)CN2CCc3ccccc3C2)cc1 (stereo not drawn) [Compound 23, 4-acetamido-N-(3-(3,4-dihydroisoquinolin-2(1H)-yl)-2-hydroxypropyl)benzamide] |  |  | 101 to 1000 nM | 101 to 1000 nM |  | > 20000 nM | 
O=C(NC[C@H](O)CN1CCc2ccccc2C1)c1cc(NC2COC2)nc(N2CCOCC2)n1 [Compound 395] |  |  | < 100 nM | < 100 nM |  | < 100 nM | 
O=C(NC[C@H](O)CN1CCc2ccccc2C1)c1ccc(OCCCN2CCC2)cc1 [Compound 373] |  |  | < 100 nM | < 100 nM |  | 1000 to 10000 nM | 
CNCCOc1ccc(C(=O)NC[C@H](O)CN2CCc3ccccc3C2)cc1 [Compound 386] |  |  | < 100 nM | < 100 nM |  | 1000 to 10000 nM | 
O=C(NC[C@H](O)CN1CCc2ccccc2C1)c1ccc2cccnc2c1O [Compound 344] |  |  | > 1000 nM | 101 to 1000 nM |  | 1000 to 10000 nM | 
O=C(NC[C@H](O)CN1CCc2ccccc2C1)c1ccnc(Nc2cc[nH]n2)c1 [Compound 381] |  |  | < 100 nM | < 100 nM |  | 1000 to 10000 nM | 
CCN1CCN(c2nc(NC3CNC3)cc(C(=O)NC[C@H](O)CN3CCc4ccccc4C3)n2)CC1 [Compound 466] | 101 to 1000 nM | < 100 nM |  |  | 1000 to 10000 nM |  | 
CS(=O)(=O)CCN1CC(Nc2cc(C(=O)NC[C@H](O)CN3CCc4ccccc4C3)ncn2)C1 [Compound 580] | 101 to 1000 nM | < 100 nM |  |  | > 5000 nM |  | 
CC(C)N1CC(Nc2cc(C(=O)NC[C@H](O)CN3CCc4ccccc4C3)ncn2)C1 [Compound 423] | 101 to 1000 nM | < 100 nM |  |  | 10000 to 50000 nM |  | 
CC(=O)N1CCC(Nc2cc(C(=O)NC[C@H](O)CN3CCc4ccccc4C3(C)C)ncn2)CC1 [Compound 606] | 101 to 1000 nM | 101 to 1000 nM |  |  | > 5000 nM |  | 
CC(O)(CNC(=O)c1cc(NC2COC2)ncn1)CN1CCc2ccccc2C1 (stereo not drawn) [Compound 646] | 101 to 1000 nM | 101 to 1000 nM |  |  | > 20000 nM |  | 
COc1nc(NC2CNC2)cc(C(=O)NC[C@H](O)CN2CCc3ccccc3C2)n1 [Compound 501] | 101 to 1000 nM | < 100 nM |  |  | 1000 to 10000 nM |  | 
CN1CCC(Nc2cc(C(=O)NC[C@H](O)CN3CCc4ccccc4C3)ncn2)CC1 [Compound 206] |  |  | 101 to 1000 nM | < 100 nM |  | 1000 to 10000 nM | 
CCCC(=O)N1CCC(Nc2cc(C(=O)NC[C@H](O)CN3CCc4ccccc4C3)ccn2)CC1 [Compound 468] | < 100 nM | < 100 nM |  |  | < 100 nM |  | 
O=C(NC[C@H](O)CN1CCc2ccccc2C1)c1cc(N[C@H]2CCOC2)ncn1 [Compound 351] |  |  | < 100 nM | < 100 nM |  | 101 to 1000 nM | 
CCSCCNc1cc(C(=O)NC[C@H](O)CN2CCc3ccccc3C2)ncn1 [Compound 556] | < 100 nM | < 100 nM |  |  |  |  | 101 to 1000 nM
Nc1cc(C(=O)NC[C@H](O)CN2CCc3ccccc3C2)ncn1 [Compound 429] | 101 to 1000 nM | 101 to 1000 nM |  |  | 10000 to 50000 nM |  | 
O=C(NC[C@H](O)CN1CCc2ccccc2C1)c1cncc(NC2CCN(CC(F)(F)F)C2)c1 (stereo partly drawn) [Compound 303] |  |  | 101 to 1000 nM | 101 to 1000 nM |  | 1000 to 10000 nM | 

The next lines start with results.

EC50 ([1]; In Cell Western methylation) | IC50 (PRMT5/MEP50; PRMT5 biochemical assay) | EC50 [1] | IC50 (PRMT5/MEP50) | SMILES | EC50 (Z-138 cell line; [2]) | EC50 (Z-138 cell line; 120 h, Z-138 cells, 5 days) | EC50 (Z-138 cell line; Z-138, 120 h)
< 100 nM | < 100 nM |  |  | CC(=O)N1CC(Nc2cc(C(=O)NC[C@H](O)CN3CCc4cccc(C)c4C3)ncn2)C1 [Compound 663] | 101 to 1000 nM |  | 
< 100 nM | < 100 nM |  |  | O=C(NC[C@H](O)CN1CCc2ccccc2C1)c1cc(Nc2cc[nH]n2)ncn1 [Compound 431] | 1000 to 10000 nM |  | 
< 100 nM | < 100 nM |  |  | CCN(C)c1nc(NC2COC2)cc(C(=O)NC[C@H](O)CN2CCc3ccccc3C2)n1 [Compound 458] | < 100 nM |  | 
< 100 nM | < 100 nM |  |  | O=C(NC[C@H](O)CN1CCc2ccccc2C1)c1cc(NC2CC3(COC3)C2)ncn1 [Compound 557] | < 100 nM |  | 
< 100 nM | < 100 nM |  |  | COCCN1CCN(c2nc(NC3COC3)cc(C(=O)NC[C@H](O)CN3CCc4ccccc4C3)n2)CC1 [Compound 496] | < 100 nM |  | 
< 100 nM | < 100 nM |  |  | O=C(NC[C@H](O)CN1CCc2ccccc2C1)c1cc(NC2CN(C(=O)C3CCC3)C2)ccn1 [Compound 577] | < 100 nM |  | 
< 100 nM | < 100 nM |  |  | O=C(NC[C@H](O)CN1CCc2ccccc2C1)c1cc(N[C@H]2CC[C@@H](O)CC2)ncn1 [Compound 592] | 101 to 1000 nM |  | 
< 100 nM | < 100 nM |  |  | CO[C@H]1CC[C@@H](N(C)c2cc(C(=O)NC[C@H](O)CN3CCc4ccccc4C3)ncn2)CC1 [Compound 618] | 1000 to 10000 nM |  | 
< 100 nM | < 100 nM |  |  | CC(C)(C)C(=O)N1CCC(Nc2cc(C(=O)NC[C@H](O)CN3CCc4ccccc4C3)ncn2)CC1 [Compound 410] | < 100 nM |  | 
< 100 nM | < 100 nM |  |  | CCCC(=O)N1CC(Nc2cc(C(=O)NC[C@H](O)CN3CCc4ccccc4C3)ccn2)C1 [Compound 503] | < 100 nM |  | 
< 100 nM | < 100 nM |  |  | CC(C)c1nc(NC2COC2)cc(C(=O)NC[C@H](O)CN2CCc3ccccc3C2)n1 [Compound 449] | 101 to 1000 nM |  | 
< 100 nM | < 100 nM |  |  | CC(=O)N1CCC(Nc2cc(C(=O)NC(C)C(O)CN3CCc4ccccc4C3)ncn2)CC1 (stereo not drawn) [Compound 536] | 101 to 1000 nM |  | 
< 100 nM | < 100 nM |  |  | CC(C)CC(=O)N1CC(Nc2cc(C(=O)NC[C@H](O)CN3CCc4ccccc4C3)ncn2)C1 [Compound 417] | < 100 nM |  | 
< 100 nM | < 100 nM |  |  | CN(C)C(=O)[C@H]1CC[C@@H](Nc2cc(C(=O)NC[C@H](O)CN3CCc4ccccc4C3)ncn2)CC1 [Compound 598] | 1000 to 10000 nM |  | 
< 100 nM | < 100 nM |  |  | CC(C)N1CCN(c2nc(NC3COC3)cc(C(=O)NC[C@H](O)CN3CCc4ccccc4C3)n2)CC1 [Compound 478] | < 100 nM |  | 
< 100 nM | < 100 nM |  |  | COCC(=O)N1CC(Nc2cc(C(=O)NC[C@H](O)CN3CCc4ccccc4C3)ncn2)C1 [Compound 531] | 101 to 1000 nM |  | 
< 100 nM | < 100 nM |  |  | O=C(NC[C@H](O)CN1CCc2ccccc2C1)c1cc(NC2CCN(C(=O)C3CC3)CC2)ccn1 [Compound 638] | < 100 nM |  | 
< 100 nM | < 100 nM |  |  | CCCC(=O)N1CCC(Nc2cc(C(=O)NC[C@H](O)CN3CCc4ccccc4C3)ncn2)CC1 [Compound 407] | < 100 nM |  | 
< 100 nM | < 100 nM |  |  | CC(=O)N[C@H]1CC[C@H](Nc2cc(C(=O)NC[C@H](O)CN3CCc4ccccc4C3)ncn2)CC1 [Compound 594] | 101 to 1000 nM |  | 
< 100 nM | < 100 nM |  |  | COc1nc(NC2COC2)cc(C(=O)NC[C@H](O)CN2CCc3ccccc3C2)n1 [Compound 465] | 101 to 1000 nM |  | 
< 100 nM | < 100 nM |  |  | CC(=O)N1CCC(Nc2cc(C(=O)NC[C@H](O)CN3CCc4ccccc4C3)nc(N3CCOCC3)c2)CC1 [Compound 678] | 101 to 1000 nM |  | 
< 100 nM | < 100 nM |  |  | CC(=O)N[C@H]1CC[C@@H](Nc2cc(C(=O)NC[C@H](O)CN3CCc4ccccc4C3)ncn2)CC1 [Compound 590] | 101 to 1000 nM |  | 
< 100 nM | < 100 nM |  |  | CCCN(C)c1nc(NC2COC2)cc(C(=O)NC[C@H](O)CN2CCc3ccccc3C2)n1 [Compound 459] | < 100 nM |  | 
< 100 nM | < 100 nM |  |  | CCN(C)[C@H]1CC[C@H](Nc2cc(C(=O)NC[C@H](O)CN3CCc4ccccc4C3)ncn2)CC1 [Compound 662] | 101 to 1000 nM |  | 
< 100 nM | < 100 nM |  |  | CC(=O)N1CCC(Nc2cc(C(=O)NCC(C)CN3CCc4ccccc4C3)ncn2)CC1 (stereo not drawn) [Compound 658] | 101 to 1000 nM |  | 
